According to patent publication US20240270786A1, “STEROID COMPOUNDS” (Epirium Bio Inc., priority 2022, published 2024):
Several values for one entry are separate records, joined by “and”; a condition that tells them apart may be missing. Equal entries are not always repeated.

Key:
[1] = system: PGC-1α expression in C2C12 cells; assay: In vitro PGC-1α expression in C2C12 cells (cell ELISA); format: cell-based; details: 0.01 nM, 5000 cells/well, OD @ 650 nm, DMSO control = 100
Experimental: Culture conditions: DMEM containing 25 mM glucose with 10% FBS supplementation; grown at 37° C. and 5% CO2.
Drugs: (+)-Epicatechin, AICAR (direct activator of AMPK).
Assay Conditions: C2C12 cells were cultured in DMEM supplemented in 10% FBS upto 80% confluence. The cells were further trypsinized and seeded into a 96 well plate at a density of 5000 cells/well (well volume—100 μL) (Day 0). Following attachment, the cells were allowed to reach 80-90% confluence in the plate (typically 48 hours post seeding) and further differentiated using DMEM+2% Horse Serum (200 μL/well). The media was changed every day or at least every alternate day for 5 days to allow myoblasts to differentiate into myotubes. On day 7 (post seeding), the cells were treated with standards and test compounds for PGC-1 α assay.
PGC-1α assay: For the detection of PGC-1a, the cells were incubated with 0.5 μg/ml primary antibody (Merck, WH0010891M3) in PBS-T containing 5% BSA at 4° C. overnight. The cells were then washed three times with PBS-T for 5 minutes and incubated with 1:1000 dilution secondary antibody (Anti-rabbit IgG, HRP-linked Antibody, Cell Signaling) in PBS-T with 1% BSA for 1 hour at RT. Cells were washed three times with PBS-T for 5 minutes The cells were incubated with 100 μl TMB substrate solution for 30 minutes and the reaction was stopped with 100 μl of 2N H2SO4. […] (For plate optical density calculations, a background correction was taken at 540 nm). The final PGC-1a activation % is average of activation of 6 replicates.

PGC-1α = assay: In vivo PGC-1α expression in liver of LPS-treated mice (ELISA); design: species or system C57BL/6 mice; details: LPS 3 mg/Kg IP, test compound 10 mg/kg PO BID, liver, 24 hours post LPS; for PGC-1α levels: C57BL/6 mice; for PGC-1α level (%): Control = 100
Experimental: C57BL/6 mice were procured from Vivo Bio Tech Ltd. Male mice were used for the study within an age range of 7 to 8 weeks. Body weight for these mice ranged from 20 g to 25 g. Animals were housed in a group of 6 in individually ventilated cages with temperature of 22±3° C., a relative humidity of 50 to 60%. The bottom of the cages was layered with sterilized corn cob. Animals were provided with gamma irradiated feed and autoclaved drinking water ad-libitum. The IVCs were maintained at an environment controlled (Centrally Air-Conditioned) room at a temperature of 22±3° C., a relative humidity of 50 to 60%, light intensity of 250-300 lux and a 12 hour light-dark cycle and noise intensity of <85 db.
Method of Preparation: LPS was dosed at 3 mg/kg in a dose volume of 10 ml/kg. For this, 0.3 mg/ml of LPS solution (Micronized suspension) was prepared. Butter paper was placed on analytical balance, tarred and LPS was placed on butter paper and its weight was noted down. LPS was transferred to 15 ml falcon tube. Then required amount of normal saline was added to it to make it 0.3 mg/ml. The solution was vortexed properly for 5 minutes and placed on ice. LPS solution was vortexed every time before aspiration and injection.
LPS was dosed at 3 mg/kg. Each test compound was dosed at 10 mg/kg, 2 hour and 15 min post LPS administration.
0.5% CMC was used as a vehicle with a dose volume of 10 ml/kg. An IP route was used for LPS, and a PO route was used for each test compound. Animals were sacrified 24 hours post LPS dosing, and plasma were collected. PGC-1α level was measured in liver samples, and other tissues were stored for future analysis. PGC-1α level was checked using ELISA kit—CUSABIO Mouse PPARGC1A ELISA kit.
Protocol: One day before start of the experiment C57BL/6 Mice (Male, 6-7-week-old) were randomized on the basis of their body weight and were divided into groups. All the cages were assigned the respective group name. Animals inside each cage were marked on the base of the tails with permanent marker to distinguish each animal. Mice were fasted overnight. Next day morning animals were dosed with test item. Group 1 (Control) and Group 2 (LPS) Animals were dosed with vehicle (0.5% CMC). Test items were prepared in 0.5% CMC by trituration in mortar and pestle and addition of CMC drop by drop. 2 hour post test item/vehicle dosing animals were administered with LPS through IP route at 3 mg/kg of body weight. Group 1 (Control) animals were administered with saline. 0.25 hour post LPS administration, animals were again dosed with test item/vehicle. Post dosing, animals were returned to their respective cages and kept until termination of the study. No feed was offered to any group. Animals were provided with water. 24 hour post LPS administration, blood was collected from each animal under influence of mild isoflurane anesthesia through retro-orbital technique. Animals were sacrificed by CO2 asphyxiation technique. Post-termination, animals were dissected and vital organs, liver, brain, skeleton muscle were collected in Eppendorf tubes and flash frozen in liquid nitrogen. Serum was collected from whole blood by centrifuging it at 4° C. at 10,000 RPM and for 10 minutes. (Blood was left for 2 hour for coagulation before centrifugation) After completion of the experiment, all collected samples were stored at −80° C. until analysis.
Assay Methods/Protocol: The mortar was chilled with liquid nitrogen and then the small tissue pieces were grinded in the presence of liquid nitrogen to a fine powder. Immediately after grinding, transferred small amount of tissue powder to a 1.5 ml micro centrifuge tube containing 1.0 ml lysis buffer (RIPA buffer+Protease inhibitor). The samples were then incubated on ice for 2 hours. The samples were vortexed every 15 minutes. The samples were then centrifuged at 13000×g for 15 minutes at 2-8° C. After centrifugation the supernatant was removed carefully and pellet was discarded. […]

SMILES	% Activity (PGC-1α expression) [1]	PGC-1α levels (PGC-1α)	PGC-1α level (%) (PGC-1α)
CN1C(=O)CC[C@@]2(C)C1=CCC1C2[C@@H](O)C[C@@]2(C)C1CC[C@@H]2NC(=O)C1CC1 (stereo partly drawn) [Compound 26, N-((4aR,5S,6aS,7S)-5-hydroxy-1,4a,6a-trimethyl-2-oxo-2,3,4,4a,4b,5,6,6a,7,8,9,9a,9b,10-tetradecahydro-1H-indeno[5,4-f]quinolin-7-yl)cyclopropanecarboxamide]	129% and 146%	32298 pg/mL	84%
CNC(=O)[C@H]1CCC2C3CC=C4N(C)C(=O)CC[C@]4(C)C3[C@@H](O)C[C@@]21C (stereo partly drawn) [Compound 40, (4aR,5S,6aS)-5-hydroxy-N,1,4a,6a-tetramethyl-2-oxo-2,3,4,4a,4b,5,6,6a,7,8,9,9a,9b,10-tetradecahydro-1H-indeno[5,4-f] quinoline-7-carboxamide]	130% and 143%	39014 pg/mL and 22668 pg/mL	73% and 75%
CC(C)CCNC(=O)C1CCC2C3CC=C4N(C)C(=O)CC[C@]4(C)C3[C@@H](O)C[C@]12C (stereo partly drawn) [Compound 36, (4aR,5S,6aS)-5-hydroxy-N-isopentyl-1,4a,6a-trimethyl-2-oxo-2,3,4,4a,4b,5,6,6a,7,8,9,9a,9b,10-tetradecahydro-1H-indeno[5,4-f]quinoline-7-carboxamide]	133% and 130%	29341 pg/mL	77%
